Structures are written as SMILES. Values after ≈ are worked out from the molar mass of the structure shown. Active and inactive are the calls of the source. The calls are words filed in the database; no cut-off is given here.

One assay relates to P388. Briefly: Cytotoxicity against mouse P388 cells. The class given is functional.
The test system of another assay is KB. Briefly: Cytotoxicity against human KB cells. It is filed as functional.
Setting [1] is: read-out: ED50 (the source's name).

In the case of `COc1c(O)c(OC)c2c3c(cc4ccccc42)NC(=O)c13`, the outcome in the assay on P388 and in the assay on KB was inactive.

For the molecule `COc1c(O)cc2c3c(cc4ccccc4c13)NC2=O` [ARISTOLACTAM AII], the EC50 is 3.2 µg/mL (≈ 12.1 µM) with P388 (setting [1]) and 2.1 µg/mL (≈ 7.92 µM) in the assay on KB (setting [1]).

Take `COc1cccc2c1cc1c3c(cc4c(c32)OCO4)C(=O)N1`: the result in the assay on P388 and with KB was inactive.

On to `COc1cc2c3c(cc4ccccc4c3c1O)NC2=O`, for which the result in the assay with P388 and in the assay with KB was inactive.

The record behind these values is ChEMBL document CHEMBL1150727, “New cytotoxic aristolactams from Pararistolochia flos-avis” (1987).
